Data set [1] deals with mTORc1 signaling, pS6 (Ser240/244) in MEF TSCl−/− cells. Nature of the data set: Cell-based assay for rapalog potency (pS6) in MEF TSCl−/− cells. The settings on record: Mus musculus, 2 hours treatment, average from multiple assays. The procedure, abridged:
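Constitutively mTORc1-active MEF TSC1−/− cells were starved 2 h in glucose/bicarbonate/HEPES DPBS, then exposed 2 h at 37° C to 8-point, 3.16-fold compound dilutions. After fixation, pS6 (Ser240/244) and p4EBP1 (Thr37/46) immunofluorescence was imaged; IC50 (nM) from pS6, averaged over multiple assays.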

Data set [2] can be described thus: Pharmacokinetic profile in rats. In kind it is in vivo. The settings on record: male, Sprague-Dawley, blood, rat. The procedure:
All procedures involving animals were approved by the Institutional Animal Care and Use Committee of the Novartis Institutes for Biomedical Research, Cambridge, Mass., USA. Adult Sprague Dawley (SD) male rats were purchased from Envigo (Indianapolis, USA). Once imported, rats were maintained at the specific pathogen free facilities with controlled temperature and light (22° C., 12-h light/12-h dark cycle: lights on at 0600 h/lights off at 1800 h) and with ad libitum access to food and water. Rats were acclimated for at least 3 days before experiments commenced.
Various organs were collected and frozen in liquid nitrogen. Blood was collected via a tail vein or a cardiac puncture (terminal) and frozen for further pharmacokinetics analyses. All tissues were stored at −80° C. until analyzed.
Concentrations were determined using HPLC/Mass spectrometry.
Compounds were administered to rats aged 7-9 weeks (N=3 per group) p.o. at 3 mg/kg and intravenously (i.v). at 1 mg/kg (FIGS. 3A and 3B).

The subject of data set [3] is mTORC1 pathway (S6 phosphorylation) in rat liver. Nature of the data set: Inhibition of mTORc1 pathway in rat liver (p-S6/t-S6 immunoblot). In kind it is in vivo. The settings on record: single oral dose 1, 3 and 10 mg/kg, liver at 3 hours, compared with vehicle control. The procedure:
Rats were given a single oral dose of Compound 2 at 1, 3 or 10 mg/kg, and liver samples were collected at 3 hours following dosing. Rats treated with a vehicle were used as a control. […] GAPDH (glyceraldehyde 3-phosphate dehydrogenase) was used to control for protein loading. […] In the histogram depicted in FIG. 4B, average arbitrary values that indicate p-S6/t-S6 ratios are shown above each bar. X axis represents orally given doses (1, 3, or 10 mg/kg). Y-axis represents arbitrary units. Six rats were used in each experimental group. Data are mean±standard deviation. Data were analyzed with a one way ANOVA followed by Dunnett's multiple comparison tests, where means from all groups were compared to the vehicle treated group. […]. […]
Various organs were collected and frozen in liquid nitrogen. […] All tissues were stored at −80° C. until analyzed.
For protein extraction, snap frozen tissues were lysed in MSD Lysis Buffer (MSD, Rockville, Md.), supplemented with complete EDTA free protease inhibitor and PhosSTOP phosphatase inhibitor tablets (Roche, Manheim, Germany), and centrifuged at 13,000 g for 20 min at 4° C. […] Protein was quantified with BCA protein assay (Thermo Scientific, MA). […] Glyceraldehyde 3-phosphate dehydrogenase (GAPDH) detected with an anti-GAPDH antibody (#5174, Cell Signaling Technologies, MA) was used as a protein loading control. […]
In general terms: A western blot detects proteins with antibodies after separation by electrophoresis.

SMILES strings stand for the structures. pIC50: −log10 of the molar value.

`CO[C@@H]1C[C@H](C[C@@H](C)[C@@H]2CC[C@H](C)/C=C(\C)[C@@H](O)[C@@H](OC)C(=O)[C@H](C)C[C@H](C)/C=C/C=C/C=C(\C)[C@@H](NS(C)(=O)=O)C[C@@H]3CC[C@@H](C)[C@@](O)(O3)C(=O)C(=O)N3CCCC[C@H]3C(=O)O2)CC[C@H]1O` [Compound 2] had a pIC50 in data set [1] of 9.96. Moreover, the clearance in data set [2] (iv, i.v. 1 mg/kg) is 13 mL/min/kg. In addition, the half-life in data set [2] (iv, i.v. 1 mg/kg, read-out: iv. terminal half-life (converted)) is 19 h. For the same molecule, the bioavailability in data set [2] (oral, p.o. 3 mg/kg and i.v. 1 mg/kg, solution formulation) was determined as 16%. In addition, the “de-phosphorylation (inactivation) of S6 in rat livers” value in data set [3] is given as “significant de-phosphorylation (inactivation) of S6”.

What is called pIC50 is the IC50 on a negative log10 scale, so that one unit is a factor of ten. The term clearance denotes a measure of how efficiently the substance is removed, as volume per time. One may read the half-life as the time needed for the level to fall by half in the phase considered. The term bioavailability denotes dose-corrected exposure relative to a reference, in per cent. A lower bioavailability goes with poor availability.

The values are drawn from patent publication US12281125B2, “Rapamycin derivatives” (NOVARTIS AG, priority 2018, dated 2025).
